Source: patent publication US20250333407A1, “Compounds and Their Use for Treatment of Hemoglobinopathies” (Bristol-Myers Squibb Company, priority 2024, published 2025)

How the values were obtained:
Assay type in all cases: cell-based
HbF = HbF HiBiT induction assay in HUDEP-2 cells; conditions: HUDEP-2 cells with HiBiT tag in HBG1/2, 72 hours of treatment; area under the dose response curve, higher AUC = greater HbF induction
How it was run: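 HUDEP-2 cells carrying a HiBiT tag on HBG1/2 were exposed to compounds for 72 h at 37° C, 5% CO2, in IMDM with EPO, hSCF, DOX, transferrin, insulin, heparin and 5% human plasma. HiBiT luminescence was read after lytic detection; HbF induction is expressed as dose-response AUC, alongside EC50 and Ymax.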

WIZ = target: T1, WIZ (Homo sapiens, UniProt O95785+Q96SW2); assay: HUDEP-2 WIZ HiBiT degradation assay; conditions: HiBiT-tagged WIZ degradation in HUDEP-2 cells, 24 hours of treatment; read-out: WIZ EC50
T1 construct: HUDEP-2 cells engineered to express a HiBiT tag in either the WIZ (Widely interspaced zinc finger) or ZBTB7A
T1 sequence (O95785 whole entry): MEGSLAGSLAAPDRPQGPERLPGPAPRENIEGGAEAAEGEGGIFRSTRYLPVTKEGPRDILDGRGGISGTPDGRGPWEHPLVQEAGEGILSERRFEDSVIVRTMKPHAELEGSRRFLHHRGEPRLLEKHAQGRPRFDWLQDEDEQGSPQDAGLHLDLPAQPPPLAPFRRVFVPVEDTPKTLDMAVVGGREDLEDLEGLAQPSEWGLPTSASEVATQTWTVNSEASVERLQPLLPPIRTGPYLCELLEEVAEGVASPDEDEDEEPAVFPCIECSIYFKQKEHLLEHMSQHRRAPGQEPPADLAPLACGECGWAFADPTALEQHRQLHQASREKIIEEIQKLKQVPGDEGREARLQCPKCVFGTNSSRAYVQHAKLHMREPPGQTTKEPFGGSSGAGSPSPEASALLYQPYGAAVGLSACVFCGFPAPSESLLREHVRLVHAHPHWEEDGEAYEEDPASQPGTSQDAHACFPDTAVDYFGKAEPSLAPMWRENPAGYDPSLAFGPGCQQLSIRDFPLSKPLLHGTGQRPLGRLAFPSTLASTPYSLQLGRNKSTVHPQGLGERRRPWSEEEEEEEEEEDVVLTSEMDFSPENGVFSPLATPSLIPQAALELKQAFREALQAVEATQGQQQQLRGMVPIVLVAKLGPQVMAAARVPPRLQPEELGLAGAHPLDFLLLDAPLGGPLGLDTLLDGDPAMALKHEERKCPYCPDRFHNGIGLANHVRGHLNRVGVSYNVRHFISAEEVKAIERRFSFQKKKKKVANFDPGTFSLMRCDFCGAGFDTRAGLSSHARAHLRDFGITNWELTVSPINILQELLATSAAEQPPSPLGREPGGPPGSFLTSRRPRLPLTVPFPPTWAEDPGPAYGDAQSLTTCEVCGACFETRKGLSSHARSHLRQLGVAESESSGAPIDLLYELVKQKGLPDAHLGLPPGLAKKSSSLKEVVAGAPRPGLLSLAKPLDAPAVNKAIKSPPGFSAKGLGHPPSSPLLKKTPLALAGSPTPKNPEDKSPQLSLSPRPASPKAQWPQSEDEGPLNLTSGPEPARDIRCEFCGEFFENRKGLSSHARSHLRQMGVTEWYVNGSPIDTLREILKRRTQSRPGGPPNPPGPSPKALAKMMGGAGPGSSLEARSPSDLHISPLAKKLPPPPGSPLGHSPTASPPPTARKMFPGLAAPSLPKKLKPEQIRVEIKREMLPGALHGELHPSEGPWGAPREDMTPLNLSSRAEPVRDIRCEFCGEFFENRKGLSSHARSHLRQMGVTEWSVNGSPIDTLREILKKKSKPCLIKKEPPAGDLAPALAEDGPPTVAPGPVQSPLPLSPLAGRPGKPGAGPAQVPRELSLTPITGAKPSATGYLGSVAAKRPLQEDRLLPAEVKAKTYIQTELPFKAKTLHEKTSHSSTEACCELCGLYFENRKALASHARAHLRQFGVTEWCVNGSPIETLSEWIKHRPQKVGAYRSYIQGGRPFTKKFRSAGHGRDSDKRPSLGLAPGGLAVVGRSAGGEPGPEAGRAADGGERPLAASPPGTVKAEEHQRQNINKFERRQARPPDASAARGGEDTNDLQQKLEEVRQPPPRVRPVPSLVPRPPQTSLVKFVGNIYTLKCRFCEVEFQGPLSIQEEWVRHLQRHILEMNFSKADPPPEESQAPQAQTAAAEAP
T1 sequence (Q96SW2 whole entry): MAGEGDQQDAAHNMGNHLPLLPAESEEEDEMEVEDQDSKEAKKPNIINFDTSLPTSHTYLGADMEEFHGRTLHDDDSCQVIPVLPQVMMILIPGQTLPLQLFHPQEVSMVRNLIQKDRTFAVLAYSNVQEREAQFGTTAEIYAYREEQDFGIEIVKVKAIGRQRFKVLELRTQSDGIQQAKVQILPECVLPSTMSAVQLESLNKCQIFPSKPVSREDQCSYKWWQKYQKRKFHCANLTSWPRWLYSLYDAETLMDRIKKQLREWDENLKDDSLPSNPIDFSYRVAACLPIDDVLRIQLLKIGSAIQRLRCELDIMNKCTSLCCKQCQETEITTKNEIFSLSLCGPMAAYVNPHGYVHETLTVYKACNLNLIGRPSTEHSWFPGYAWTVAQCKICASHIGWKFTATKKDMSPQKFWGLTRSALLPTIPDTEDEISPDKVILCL
T1 sequence (Q16531 whole entry partner): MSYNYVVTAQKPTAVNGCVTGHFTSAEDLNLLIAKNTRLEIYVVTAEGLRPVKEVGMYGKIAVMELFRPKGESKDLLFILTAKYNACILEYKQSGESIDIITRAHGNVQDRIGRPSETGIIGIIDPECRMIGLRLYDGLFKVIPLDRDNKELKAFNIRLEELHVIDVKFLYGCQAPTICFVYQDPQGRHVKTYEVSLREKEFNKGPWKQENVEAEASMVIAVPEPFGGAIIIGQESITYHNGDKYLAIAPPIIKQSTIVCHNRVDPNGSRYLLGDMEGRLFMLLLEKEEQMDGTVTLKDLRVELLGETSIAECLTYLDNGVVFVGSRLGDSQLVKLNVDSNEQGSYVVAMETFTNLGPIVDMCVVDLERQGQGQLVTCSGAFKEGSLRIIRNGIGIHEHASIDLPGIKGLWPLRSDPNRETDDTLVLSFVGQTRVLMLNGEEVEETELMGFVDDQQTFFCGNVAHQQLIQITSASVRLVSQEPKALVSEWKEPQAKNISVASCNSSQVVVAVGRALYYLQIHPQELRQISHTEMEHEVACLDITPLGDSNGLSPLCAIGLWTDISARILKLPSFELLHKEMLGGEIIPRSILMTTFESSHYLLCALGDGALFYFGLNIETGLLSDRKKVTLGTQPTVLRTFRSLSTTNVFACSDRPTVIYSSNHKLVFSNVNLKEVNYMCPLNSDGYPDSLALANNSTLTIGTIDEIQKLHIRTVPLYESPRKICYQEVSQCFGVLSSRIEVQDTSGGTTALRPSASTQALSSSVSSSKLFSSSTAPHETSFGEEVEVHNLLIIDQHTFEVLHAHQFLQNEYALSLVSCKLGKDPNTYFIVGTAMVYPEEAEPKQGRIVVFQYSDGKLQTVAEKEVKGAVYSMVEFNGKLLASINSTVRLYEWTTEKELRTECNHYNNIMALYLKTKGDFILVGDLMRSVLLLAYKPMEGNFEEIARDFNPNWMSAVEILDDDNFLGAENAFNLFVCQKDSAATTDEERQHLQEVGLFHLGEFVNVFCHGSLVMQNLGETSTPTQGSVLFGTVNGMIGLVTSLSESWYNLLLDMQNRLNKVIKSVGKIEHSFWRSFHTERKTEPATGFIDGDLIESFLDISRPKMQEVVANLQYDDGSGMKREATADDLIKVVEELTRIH
How it was run: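 HiBiT-tagged HUDEP-2 cells at 1.0×10^6 cells/ml in SFEM II with SCF, EPO, dexamethasone and doxycycline, treated 24 h at 37 °C with a 10-point series ([…]). Luminescence after HiBiT lytic detection, normalized to DMSO; EC50 and Y-min from fitted curves.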

ZBTB7A = target: T2, ZBTB7A (Homo sapiens, UniProt O95365+Q96SW2); assay: HUDEP-2 ZBTB7A HiBiT degradation assay; conditions: HiBiT-tagged ZBTB7A degradation in HUDEP-2 cells, 24 hours of treatment; read-out: ZBTB7A EC50
T2 construct: HUDEP-2 cells engineered to express a HiBiT tag in either the WIZ (Widely interspaced zinc finger) or ZBTB7A
T2 sequence (O95365 whole entry): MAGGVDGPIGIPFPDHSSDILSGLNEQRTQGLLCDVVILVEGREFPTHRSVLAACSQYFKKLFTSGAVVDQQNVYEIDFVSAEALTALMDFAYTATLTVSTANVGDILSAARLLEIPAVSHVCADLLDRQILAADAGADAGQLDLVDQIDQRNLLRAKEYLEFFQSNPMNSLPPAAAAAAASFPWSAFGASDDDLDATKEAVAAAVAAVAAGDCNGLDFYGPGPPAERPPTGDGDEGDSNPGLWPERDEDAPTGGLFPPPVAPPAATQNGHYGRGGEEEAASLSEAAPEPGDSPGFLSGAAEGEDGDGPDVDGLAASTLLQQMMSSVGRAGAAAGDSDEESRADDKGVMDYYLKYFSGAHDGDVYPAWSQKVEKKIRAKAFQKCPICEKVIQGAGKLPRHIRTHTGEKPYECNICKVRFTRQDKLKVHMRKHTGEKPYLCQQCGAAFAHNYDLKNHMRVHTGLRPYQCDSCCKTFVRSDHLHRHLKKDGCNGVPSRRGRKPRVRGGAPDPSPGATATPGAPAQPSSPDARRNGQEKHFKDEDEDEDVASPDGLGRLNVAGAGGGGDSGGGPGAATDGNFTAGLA
T2 sequence (Q96SW2 whole entry): as the sequence (Q96SW2 whole entry) above
T2 sequence (Q16531 whole entry partner): as the sequence (Q16531 whole entry partner) above
How it was run: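 HiBiT-tagged HUDEP-2 cells were pre-cultured 48 h in IMDM with EPO, SCF, doxycycline and 5% human plasma, then exposed to compounds at 1.0×10^6 cells/ml for 24 h at 37 °C. Nano-Glo HiBiT lytic luminescence, normalised to DMSO over 10 concentrations, gave EC50 and Y-min.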

Row | DC50 (WIZ) [nM] | DC50 (ZBTB7A) [nM] | Compound | HBF AUC (HbF)
1 | 14 | 13 | CCN1C(=O)CCc2cc(-c3ccnc(C)c3)c(Nc3cccc4c3C(=O)N([C@H]3CCC(=O)NC3=O)C4=O)cc21 [Compound 89, (S)-2-(2,6-dioxopiperidin-3-yl)-4-((1-ethyl-6-(2-methylpyridin-4-yl)-2-oxo-1,2,3,4-tetrahydroquinolin-7-yl)amino)isoindoline-1,3-dione] | + (+ = 15 ≤ AUC < 100)
2 | 14 | 24 | Cc1cc(-c2c(Nc3cccc4c3C(=O)N([C@H]3CCC(=O)NC3=O)C4=O)cc3c(c2F)CCC(=O)N3C)ccn1 [Compound 90, (S)-2-(2,6-dioxopiperidin-3-yl)-4-((5-fluoro-1-methyl-6-(2-methylpyridin-4-yl)-2-oxo-1,2,3,4-tetrahydroquinolin-7-yl)amino)isoindoline-1,3-dione] | ++ (++ = 100 ≤ AUC < 150)
3 | 4 | 4 | CO[C@H]1CC[C@H](c2cc3c(cc2Nc2cccc4c2C(=O)N([C@H]2CCC(=O)NC2=O)C4=O)N(C)C(=O)CC3)CC1 [Compound 91, 2-((S)-2,6-dioxopiperidin-3-yl)-4-((6-((1r,4S)-4-methoxycyclohexyl)-1-methyl-2-oxo-1,2,3,4-tetrahydroquinolin-7-yl)amino)isoindoline-1,3-dione] | ++ (++ = 100 ≤ AUC < 150)
4 | 2 | 3 | CO[C@H]1CC[C@@H](c2cc3c(cc2Nc2cccc4c2C(=O)N(C2CCC(=O)NC2=O)C4=O)N(C)C(=O)CC3)CC1 (stereo partly drawn) [Compound 92, 2-(2,6-dioxopiperidin-3-yl)-4-((6-((1s,4s)-4-methoxycyclohexyl)-1-methyl-2-oxo-1,2,3,4-tetrahydroquinolin-7-yl)amino)isoindoline-1,3-dione] | + (+ = 15 ≤ AUC < 100)
5 | 4 | 15 | CN1C(=O)CCc2cc(C3CCN(C(=O)C4CC4)CC3)c(Nc3cccc4c3C(=O)N(C3CCC(=O)NC3=O)C4=O)cc21 (stereo not drawn) [Compound 93, 4-((6-(1-(cyclopropanecarbonyl)piperidin-4-yl)-1-methyl-2-oxo-1,2,3,4-tetrahydroquinolin-7-yl)amino)-2-(2,6-dioxopiperidin-3-yl)isoindoline-1,3-dione] | ++ (++ = 100 ≤ AUC < 150)
6 | 17 | 28 | C=CN1C(=O)CCc2cc(-c3ccnc(C)c3)c(Nc3cccc4c3C(=O)N(C3CCC(=O)NC3=O)C4=O)cc21 (stereo not drawn) [Compound 94, 2-(2,6-dioxopiperidin-3-yl)-4-((6-(2-methylpyridin-4-yl)-2-oxo-1-vinyl-1,2,3,4-tetrahydroquinolin-7-yl)amino)isoindoline-1,3-dione] | + (+ = 15 ≤ AUC < 100)
7 | 89 | 256 | Cc1cc(-c2nc3c(cc2Nc2cccc4c2C(=O)N([C@H]2CCC(=O)NC2=O)C4=O)N(C)C(=O)CC3)ccn1 [Compound 95, (S)-2-(2,6-dioxopiperidin-3-yl)-4-((5-methyl-2-(2-methylpyridin-4-yl)-6-oxo-5,6,7,8-tetrahydro-1,5-naphthyridin-3-yl)amino)isoindoline-1,3-dione] | + (+ = 15 ≤ AUC < 100)
8 | 11 | 13 | Cc1cc(-c2cc3c(cc2Nc2cccc4c2C(=O)N(C2CCC(=O)NC2=O)C4=O)N(C)C(=O)CC3C)ccn1 (stereo not drawn) [Compound 96, 4-((1,4-dimethyl-6-(2-methylpyridin-4-yl)-2-oxo-1,2,3,4-tetrahydroquinolin-7-yl)amino)-2-(2,6-dioxopiperidin-3-yl)isoindoline-1,3-dione] | ++ (++ = 100 ≤ AUC < 150)
